The structures appear in SMILES notation.

The target of this test is Serine/threonine-protein kinase pim-1 (Homo sapiens, UniProt P11309). As to the kind of experiment: Radioactive Filter Plate Assay. The conditions noted are these: pH 7.5; 23 °C. How it is done:
PIM-1 kinase activity was evaluated using calf thymus histones as the substrate in a 96-well filter plate format. After incubation, the plate was washed and dried. The scintillation cocktail was added and the radioactivity counted on a TopCount plate reader (Perkin-Elmer).

Chain of Serine/threonine-protein kinase pim-1 (P11309 whole entry): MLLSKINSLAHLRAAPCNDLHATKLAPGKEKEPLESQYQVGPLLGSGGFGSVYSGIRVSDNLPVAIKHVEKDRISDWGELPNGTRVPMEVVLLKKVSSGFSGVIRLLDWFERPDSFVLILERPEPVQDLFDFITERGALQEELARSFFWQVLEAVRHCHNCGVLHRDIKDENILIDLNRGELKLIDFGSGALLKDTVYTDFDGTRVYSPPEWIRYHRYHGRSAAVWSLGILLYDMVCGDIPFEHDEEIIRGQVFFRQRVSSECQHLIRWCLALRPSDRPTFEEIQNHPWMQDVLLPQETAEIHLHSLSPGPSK

The IC50 is the concentration needed to halve the response being measured. For `N#Cc1c(C(F)(F)F)cc(-c2ccco2)[nH]c1=O` [6-(furan-2-yl)-2-oxo-4-(trifluoromethyl)-1,2-dihydropyridine-3-carbonitrile], the IC50 stood at 16 µM.

On to `N#Cc1c(-c2cccs2)c2c([nH]c1=O)-c1ccccc1OC2` [4-oxo-6-(thiophen-2-yl)-9-oxa-3-azatricyclo[8.4.0.0^{2,7}]tetradeca-1(14),2(7),5,10,12-pentaene-5-carbonitrile], for which the IC50 turned out to be 0.46 µM.

Regarding `N#Cc1c(-c2cccs2)c2c([nH]c1=O)-c1ccccc1SC2` [4-oxo-6-(thiophen-2-yl)-9-thia-3-azatricyclo[8.4.0.0^{2,7}]tetradeca-1(10),2(7),5,11,13-pentaene-5-carbonitrile], the concentration for half-maximal inhibition (IC50) is 1.49 µM.

With `N#Cc1c(-c2cccs2)cc(-c2cccs2)nc1O` [2-oxo-4,6-bis(thiophen-2-yl)-1,2-dihydropyridine-3-carbonitrile], the IC50 was determined as 0.99 µM.

`N#Cc1c(-c2cccs2)cc(C(F)(F)F)[nH]c1=O` [2-oxo-4-(thiophen-2-yl)-6-(trifluoromethyl)-1,2-dihydropyridine-3-carbonitrile]: the IC50 came to 3.54 µM.

Turning to `N#Cc1c(-c2ccco2)c2c([nH]c1=O)-c1ccccc1OC2` [6-(furan-2-yl)-4-oxo-9-oxa-3-azatricyclo[8.4.0.0^{2,7}]tetradeca-1(14),2(7),5,10,12-pentaene-5-carbonitrile], the 50% inhibitory concentration (IC50) turned out to be 0.87 µM.

Values taken from BindingDB's records for doi:10.1016/j.bmcl.2006.12.086 (Valeant Pharmaceuticals Research and Development, 2007).
